“Also recorded” adds a separate entry of the source. Where a SMILES comes first, the peptide text is derived from it. The star is where a group is joined. Cbz = O=C(OCc1ccccc1)*
B1: 5F11: fully human monoclonal antibody directed against CD30; VH SEQ ID NO: 10, VL SEQ ID NO: 12 (antibody, listed as Homo sapiens, V domains shown)
VH: QVQLQQWGAGLLKPSETLSLTCAVYGGSFSAYYWSWIRQPPGKGLEWIGDINHGGGTNYNPSLKSRVTISVDTSKNQFSLKLNSVTAADTAVYYCASLTAYWGQGSLVTVSS
VL: DIQMTQSPTSLSASVGDRVTITCRASQGISSWLTWYQQKPEKAPKSLIYAASSLQSGVPSRFSGSGSGTDFTLTISSLQPEDFATYYCQQYDSYPITFGQGTRLEIK

Legend:
L540 cells [1] = test: Annexin V binding assay (annexinV-FITC staining, FACS); type: cell-based, human; conditions: each agent alone, subtoxic concentrations
Procedure: FIG. 1: Induction of apoptosis in L540 cells after treatment with 5F11 and MG132 L540 cells were cultured for 16 h with PBS (control), crosslinked 5F11, MG132 or a combination of 5F11 and MG132. The apoptotic cells were labeled by annexinV-FITC staining and the percentage of viable and apoptotic cells is given as estimated in FACS analysis. The results of three independent experiments are shown.
2×10^5 L540 cells were incubated (in triplicate) either with 5F11/GaH, bortezomib, or both, or in plain medium as described above at 37° C. for 12 h. To detect apoptotic cells, the translocation of phosphatidylserine to the outer leaflet of the plasma membrane was determined by flow cytometry (FACS calibur Bengton & Dickinson Flow Cytometer) after staining with annexin V conjugated to fluorescein as recommended (Annexin V-FITC apoptosis detection kit I, BD Bioscience, USA). Triplicateswere used to calculate means and standard deviations.

Karpas 299 cells = test: XTT viability assay; conditions: Karpas299, 5F11 + GaH pre-incubated 30 minutes, versus absence of 5F11, 48 hours
REH cells [2] = test: XTT viability assay, CD30-negative control line; conditions: REH cells (do not express CD30), bortezomib alone
Text: (§5) An XTT-assay showing viability of the Hodgkin cell lines L540 (A), L428 (B) and the ALCL line Karpas299 (C) and the CD30 negative cell line REH (E) after exposure to increasing amounts of bortezomib in the presence (diamond) or absence (triangle) of 5F11.

c-flip in L540 cells = test: SDS-PAGE and Western blotting; type: cell-based, human; conditions: CD30 stimulation with 5F11, co-incubation with bortezomib for 6, 8 and 16 hours
Procedure: (§1) Whole cell protein extracts were prepared in 1× Laemmli solution (10 μg) were separated using sodium dodecyl sulfate polyacrylamide gel electrophoresis (SDS-PAGE) using 4-15% gels. Proteins were transferred to a nitrocellulose membrane (Hybond-C, Amersham Pharmacia Biotech Inc., Freiburg, Germany) and blocked with Roti-Block (Roth, Karlsruhe, Germany) for 1 h at room temperature. Immunoblots were incubated with the primary antibodies obtained from the Apoptosis Sampler Kits I and II (BD Bioscience, CA) in PBS with 10% fetal calf serum as recommended. The c-flip specific antibody was purchased from Sigma (F-6550). Bound antibodies were detected with horseradish peroxidase-conjugated secondary donkey-anti-mouse or rabbit-IgG mAb (Dianova, Hamburg, Germany) or horseradish peroxidaseconjugated goat-anti-mouse IgG (Dianova) diluted 1/10000. The proteins were visualized using the ECL Western blotting detection reagents (Amersham Pharmacia) according to manufacturers instructions.

c-flip in L428 cells = test: SDS-PAGE and Western blotting; type: cell-based, human; conditions: CD30 stimulation with 5F11, co-incubation with bortezomib for 6, 8 and 16 hours
Procedure: as §1

[3] = system: bcl-2, bax, TRADD and FADD; test: SDS-PAGE and Western blotting of candidate proteins related to NF-κB activation; type: cell-based, human; conditions: following 5F11 crosslinking or bortezomib treatment
Procedure: as §1

[4] = system: NF-κB-responsive luciferase reporter gene in L428 cells; test: Transient transfection and luciferase reporter gene assay; type: cell-based, human; conditions: L428 transfected with pNF-κB-luc
Procedure: L428 cells were transfected with either the reporter constructs pCMV-luc (transfection control) or pNF-κB-luc (bar 2-4) or pNF-κB-luc together with the expression vector IkBM (bar 5-7). The transfection efficacy was about 10% and the total amount of DNA was kept constant. After an over night recovery period transfectants were treated with PBS (basal), 5F11 or bortezomib for 24 hours. The luciferase activity (RLU) of the cells were measured and is given to indicate the relative levels of NF-κB-dependent promoter activity.
5×10^6 L428 cells in 1 ml medium were transiently transfected by means of electroporation with 10 μg NF-κB-luc, IkBaM and CMV-GFP. Cells were seeded into six-well plates with additional 2 ml of plain medium. After 24 h incubation at 37° C., GFP transfected cells were examined for green flourescence as indicator of transfection efficacy, which varied from 5% to 10%. Cells were incubated either with 20 μg/ml 5F11+100 μg/ml GaH for 2 h, or with 10 ng/ml bortezomib or both or plain media for 12 h at 37° C. After harvesting the cells were washed twice in PBS (phosphate buffered saline).
Lysis was performed using 1 ml ice-cold reporter lysis buffer (Promega), and lysates were frozen at −70° C. for 1 hour. Luciferase activity was measured using 30 μl lysate in a 96-well luminometry-plate and analyzed by luminometry. Untreated cells, transfected with the reporter gene were used to obtain baseline NF-κB-activity. All assays were done in triplicate to obtain means and standard deviations.

[5] = system: NF-κB subunit p65 in L540 cells; test: Detection of NF-κB subunit p65 with indirect immunofluorescence; type: cell-based, human; conditions: for expression level and nuclear localisation of NF-κB (p65 staining): L540 cells, crosslinked 5F11 or bortezomib
Procedure: (§2) Cytospins were provided (1 min at 1000 U/min) to determine the effect of 5F11 and/or bortezomib on apoptosis and NFκB-activation in L428 and L540 cells on the single cell level. 2×10^5 cells were seeded in six-well microtiter plates in 3 ml plain media (control) or with 5F11+GaH (5 μg/25 μg per ml) or bortezomib (10 nM) or both. Incubation time was 30 min for 5F11, 1 h for crosslinking GaH and at least six hours for bortezomib, all at 37° C. The slides were dried overnight at room temperature and fixed using ice-cold acteone (30 sec incubation). The TUNEL assay was performed using the In Situ Cell Death Detection Kit, TMR red (Roche) according to the manufacturers instructions. Finally, cells were mounted with VECTASHIELD Mounting Medium containing DAPI (Vector Laboratories, Burlingame, Calif.) or stained with an rabbit-anti-p65 antibody (Santa Cruz, 10 nM) and a second FITC-labeled mouse-anti-rabbit antibody (10 nM). Cytospin preparations were analyzed by fluorescence microscopy.
In order to exclude non-specific antibody binding, slides of untreated cells were stained either with rabbit-anti-p65-IgG, or FITC-conjugated mouse-anti-rabbit-IgG, or DAPI.

[6] = system: subcutaneous L540Cy Hodgkin tumors; test: Xenograft model of human HD; type: in vivo; conditions: SCID mice; for tumor growth compared to the control group receiving PBS: 100 μg 5F11 i.p., 10 ng bortezomib i.v. 6 hours later, 4 injections; for tumor growth in the weeks after treatment: several weeks after the 4 injections
Procedure: FIG. 3: Effect of 5F11 and bortezomib on the tumor growth of subcutaneous L540Cy Hodgkin tumors in SCID mice. The mice were randomly divided into four groups when the L540 derived tumors reached a volume of about 100 mm3 to receive PBS, 5F11 (100 μg), bortezomib (10 ng) or the combination of 5F11 and bortezomib. The tumor volume of each mouse is given. The arrows indicate the days of treatment.
The xenograft model of human HD has been described previously (17). Subcutaneous solid L540Cy tumors were established by injection of L540Cy cells (1×10^7) resuspended in 200 μL PBS into the right flank of pathogen-free severe combined immunodeficiency (SCID) mice (FOX CHASE SCID; Taconic M&B A/S, Ry, Denmark). Tumor development was measured every 3 days and the tumor volume was determined using the formula (length×width×height/2). Animals with established tumors of about 100 mm^3 were divided randomly into four groups, which received 100 μg 5F11 (in 200 μL PBS intraperitoneally) and 6 hours later 10 ng bortezomib i.v. by tail vein or each agent alone for a total of 4 injections. Control mice received PBS only. The experiment was stopped and the mice killed when the median […] in the control group exceeded 2500 mm^3 (day 50). The treatment and control groups consisted of 4 animals each and results were confirmed by repeating the experiments.

L540 cells [7] = test: XTT viability assay; type: cell-based, human
Text: (§3) Each measurement was done in triplicate.

L428 cells [8] = test: XTT viability assay; type: cell-based, human
Text: as §3

REH cells [9] = system: REH cells
Text: as §5

[10] = system: NF-κB DNA binding in L428 cells; test: Electrophoretic mobility shift assay (EMSA); type: cell-based, human; conditions: L428 nuclear extract, crosslinked antibody
Procedure: (§4) Electrophoretic mobility shift assays (EMSA) were performed to visualize binding of NF-κB to DNA. Nuclear protein extract (5 μg; 20 mM HEPES, pH 7.9, 400 mM NaCl, 1 mM EDTA, 1 mM EGTA) from cells treated with different antibodies were incubated with ^32P-labeled oligonucleotides with the NF-κB binding sequence (Santa Cruz) for 30 minutes at room temperature. The DNA/protein complexes were separated using electrophoresis on 6% native polyacrylamide gels.

[11] = system: NF-κB DNA binding in L540 cells; test: Electrophoretic mobility shift assay (EMSA); type: cell-based, human; conditions: L540 nuclear extract, crosslinked antibody
Procedure: as §4

L540 cells [12] = test: TUNEL assay with 5F11 binding staining (GaH-FITC); type: cell-based, human
Procedure: as §2
The cellular reponse to 5F11 in the partial apoptosis-resistent HD-derived cell line L540 on the single cell level was analyzed. To visualize binding of 5F11 and apoptosis simultaneously, L540 cells were incubated with 5F11 and a FITC labeled crosslinking goat-anti human antibody before performing a TUNEL assay. […]

L428 cells [13] = conditions: 5F11 alone, even at higher concentrations (ref. 17); cited from earlier work

Molecule	enhancement of apoptosis compared to the control (annexin-V staining and FACS analysis) (L540 cells [1])	expression of c-flip (Western blotting) (c-flip in L540 cells)	expression of c-flip (Western blotting) (c-flip in L428 cells)	bcl-2 and bax expression (Western blotting) [3]	expression levels of TRADD and FADD (Western blotting) [3]	expression level and nuclear localisation of NF-κB (p65 staining) [5]	tumor growth compared to the control group receiving PBS [6]	tumor growth in the weeks after treatment [6]	also measured
CC(C)C[C@@H](C=O)NC(=O)[C@H](CC(C)C)NC(=O)[C@H](CC(C)C)NC(=O)OCc1ccccc1 [MG132, carbobenzoxyl-leucinyl-leucynil-leucynal, reference compound] (Cbz-Leu-Leu-Leu-aldehyde)	did not enhance apoptosis								
CC(C)C[C@H](NC(=O)[C@H](Cc1ccccc1)NC(=O)c1cnccn1)B(O)O [bortezomib, reference compound]		downregulation	downregulation	Only minor changes	remained unaltered	exclusion of NF-κB from the cell nuclei	significantly delayed tumor growth	tumor progression	IC50 of bortezomib in the presence of 5F11 (Karpas 299 cells): decreased; cytotoxicity (XTT) (REH cells [2]): killed by bortezomib in a dose dependent manner; 5F11-induced activation of the NF-κB reporter gene in the presence of bortezomib [4]: supressed; basal activity of the NF-κB reporter [4]: reduced; 5F11-induced NF-κB staining increase and nuclear accumulation in the presence of bortezomib ([5]; L540, bortezomib given 30 minutes after 5F11 stimulation, observed after 6 and 8 hours): inhibited; IC50 of bortezomib in the presence of 5F11 (L540 cells [7]; L540, 5F11 + GaH pre-incubated 30 minutes, versus absence of 5F11, 48 hours): decreased; cell viability (XTT) (L540 cells [7]; L540, bortezomib 25 ng/ml, with or without pre-treatment with subtoxic 5F11 + GaH, 48 h): minimal reduction of viability; IC50 of bortezomib in the presence of 5F11 (L428 cells [8]; L428, 5F11 + GaH pre-incubated 30 minutes, versus absence of 5F11, 48 hours): decreased
B1	did not enhance apoptosis	induced strongly	induced strongly	Only minor changes	remained unaltered	increased; also recorded: nuclear accumulation	significantly delayed tumor growth	tumor progression	effect of pre-incubation with 5F11 on the cytotoxic potential of bortezomib (REH cells [9]): no effect; DNA-binding activity of NF-κB (EMSA) [10]: enhanced DNA binding; DNA-binding activity of NF-κB (EMSA) [11]: enhanced DNA binding; activation of the NF-κB reporter gene (luciferase activity) ([4]; stimulation with 5F11): about two-fold; binding of 5F11 (staining with GaH-FITC) (L540 cells [12]; L540 cells incubated with 5F11 and FITC labeled crosslinking goat-anti human antibody): All L540 cells were stained; apoptosis on the single cell level (TUNEL assay) (L540 cells [12]; L540 cells, 5F11 crosslinked with GaH, subtoxic concentrations in the combination): only a subset of the cells were rendered apoptotic; enhancement of the cytotoxic activity of bortezomib, reversed sequence (L428 cells [8]; L428 first incubated with bortezomib for 30 minutes, then with the antibody): does not increase; also recorded: did not enhance; sensitivity of L428 cells to 5F11 (L428 cells [13]): resistant

Reference: US7790160B2, “Method of treating CD30 positive lymphomas” (Medarex, Inc., priority 2004, dated 2010)
